Measured values as given in ChEMBL document CHEMBL1909046, “DrugMatrix in vitro pharmacology data”.

Experiments:
Leukotriene C4 synthase = biological target: T1, Leukotriene C4 synthase (Cavia porcellus, UniProt A6XA80); assay: biochemical; assay type: tissue-based, Lung;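 note: enzyme inhibition assay of leukotriene C4 synthase, using LTA4 as the substrate; in other assays of this panel Not Active means under 50% inhibition at 10 µM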
T1 sequence (A6XA80 whole entry): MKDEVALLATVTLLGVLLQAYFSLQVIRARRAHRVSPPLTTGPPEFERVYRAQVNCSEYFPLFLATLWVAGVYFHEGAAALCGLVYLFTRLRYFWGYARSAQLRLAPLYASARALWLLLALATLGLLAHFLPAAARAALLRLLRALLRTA

[1] = DRUGMATRIX: Glutamate, NMDA, Phencyclidine radioligand binding (ligand: [3H] TCP); assay type: cell membranes, Rattus norvegicus, Wistar, Cerebral cortex, Membrane; settings: Not Active = under 50% inhibition at 10 µM
[2] = DRUGMATRIX: Platelet-Derived Growth Factor (PDGF) radioligand binding (ligand: [125I] PDGF); assay type: cell-based; settings: nih3t3; Not Active = under 50% inhibition at 10 µM
[3] = biological target: Platelet-activating factor receptor (Homo sapiens, UniProt P25105); assay: biochemical; assay type: tissue-based; settings: platelet; note: in other assays of this panel Not Active means under 50% inhibition at 10 µM
[4] = biological target: 5-hydroxytryptamine receptor 4 (Cavia porcellus, UniProt O70528); assay type: cell membranes, Dunkin-Hartley, Striatum, Membrane; note: in other assays of this panel Not Active means under 50% inhibition at 10 µM
Cytochrome P450 2C9 = Cytochrome P450 2C9 (Homo sapiens, UniProt P11712); settings: bti-tn-5b1-4; note: in other assays of this panel Not Active means under 50% inhibition at 10 µM
[5] = biological target: T2, Muscarinic acetylcholine receptor M5 (Homo sapiens, UniProt P08912); assay type: cell membranes, CHO-K1, Membrane; settings: cho-k1; note: in other assays of this panel Not Active means under 50% inhibition at 10 µM
T2 sequence (P08912 whole entry): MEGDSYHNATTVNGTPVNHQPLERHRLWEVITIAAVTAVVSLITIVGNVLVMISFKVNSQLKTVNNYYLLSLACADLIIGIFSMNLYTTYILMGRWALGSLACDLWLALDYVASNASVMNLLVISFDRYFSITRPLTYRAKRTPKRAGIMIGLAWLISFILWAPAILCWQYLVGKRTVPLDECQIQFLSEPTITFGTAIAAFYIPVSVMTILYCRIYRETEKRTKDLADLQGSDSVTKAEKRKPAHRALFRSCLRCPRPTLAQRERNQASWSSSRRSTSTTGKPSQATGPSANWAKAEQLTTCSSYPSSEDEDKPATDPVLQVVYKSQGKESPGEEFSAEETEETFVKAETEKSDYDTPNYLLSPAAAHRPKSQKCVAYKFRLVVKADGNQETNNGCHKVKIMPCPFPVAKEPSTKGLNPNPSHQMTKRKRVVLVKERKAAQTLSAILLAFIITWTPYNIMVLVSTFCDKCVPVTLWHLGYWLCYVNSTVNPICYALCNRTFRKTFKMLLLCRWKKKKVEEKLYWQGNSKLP

[6] = biological target: Epidermal growth factor receptor (Homo sapiens, UniProt P00533); assay: DRUGMATRIX: Protein Tyrosine Kinase, EGF Receptor enzyme inhibition (substrate: Poly(Glu:Tyr)); assay type: cell-based, Insect cells; settings: insect cells; Not Active = under 50% inhibition at 10 µM
[7] = DRUGMATRIX: Tumor Necrosis Factor (TNF), Non-Selective radioligand binding (ligand: [125I] TNF-alpha); assay type: cell membranes, Membrane; settings: u-937; Not Active = under 50% inhibition at 10 µM
[8] = biological target: T3, C-X-C chemokine receptor type 2 (Homo sapiens, UniProt P25025); assay type: cell membranes, Membrane; settings: cho-k1; note: in other assays of this panel Not Active means under 50% inhibition at 10 µM
T3 sequence (P25025 whole entry): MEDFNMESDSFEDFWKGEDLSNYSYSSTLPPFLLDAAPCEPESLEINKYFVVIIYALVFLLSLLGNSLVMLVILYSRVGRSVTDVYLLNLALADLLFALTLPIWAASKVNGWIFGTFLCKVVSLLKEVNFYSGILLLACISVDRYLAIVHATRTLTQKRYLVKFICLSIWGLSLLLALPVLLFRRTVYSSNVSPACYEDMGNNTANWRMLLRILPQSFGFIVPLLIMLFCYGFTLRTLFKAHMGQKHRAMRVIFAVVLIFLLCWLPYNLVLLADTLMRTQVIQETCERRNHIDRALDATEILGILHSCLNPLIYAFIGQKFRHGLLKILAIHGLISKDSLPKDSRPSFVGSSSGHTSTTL

[9] = biological target: Protein kinase C alpha type (Homo sapiens, UniProt P17252); assay type: cell-based; settings: sf9
Cytochrome P450 2D6 = Cytochrome P450 2D6 (Homo sapiens, UniProt P10635); settings: bti-tn-5b1-4; note: in other assays of this panel Not Active means under 50% inhibition at 10 µM
Nitric oxide synthase 1 = Nitric oxide synthase 1 (Rattus norvegicus, UniProt P29476); assay type: tissue-based, Cerebellum; note: in other assays of this panel Not Active means under 50% inhibition at 10 µM
Estrogen receptor beta = Estrogen receptor beta (Homo sapiens, UniProt Q92731); settings: sf9; note: in other assays of this panel Not Active means under 50% inhibition at 10 µM
[10] = biological target: Sigma non-opioid intracellular receptor 1 (Homo sapiens, UniProt Q99720); assay: DRUGMATRIX: Sigma1 radioligand binding (ligand: [3H] Haloperidol); assay type: cell membranes, Jurkat, Membrane; settings: jurkat; Not Active = under 50% inhibition at 10 µM
Chain of Sigma non-opioid intracellular receptor 1 (Q99720 whole entry): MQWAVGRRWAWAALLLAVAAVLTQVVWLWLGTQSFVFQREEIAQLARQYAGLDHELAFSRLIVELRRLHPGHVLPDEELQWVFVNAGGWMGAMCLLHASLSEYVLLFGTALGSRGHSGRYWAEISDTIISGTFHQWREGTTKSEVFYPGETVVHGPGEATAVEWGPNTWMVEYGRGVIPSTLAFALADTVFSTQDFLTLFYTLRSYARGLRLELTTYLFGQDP

Chain of Cytochrome P450 2D6 (P10635 whole entry): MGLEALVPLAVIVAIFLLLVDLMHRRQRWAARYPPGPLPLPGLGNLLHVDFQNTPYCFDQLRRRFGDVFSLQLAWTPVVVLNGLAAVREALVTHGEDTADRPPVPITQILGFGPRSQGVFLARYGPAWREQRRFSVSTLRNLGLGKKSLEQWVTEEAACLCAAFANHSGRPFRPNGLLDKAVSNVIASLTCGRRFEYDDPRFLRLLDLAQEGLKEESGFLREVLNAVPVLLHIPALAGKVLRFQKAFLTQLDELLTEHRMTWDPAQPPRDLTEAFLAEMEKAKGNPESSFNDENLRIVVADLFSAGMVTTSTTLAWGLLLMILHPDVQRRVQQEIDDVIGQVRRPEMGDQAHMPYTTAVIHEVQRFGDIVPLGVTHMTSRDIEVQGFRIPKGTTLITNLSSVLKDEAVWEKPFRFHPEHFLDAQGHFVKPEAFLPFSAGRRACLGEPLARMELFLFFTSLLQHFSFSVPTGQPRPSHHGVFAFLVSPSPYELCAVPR
Chain of Epidermal growth factor receptor (P00533 whole entry): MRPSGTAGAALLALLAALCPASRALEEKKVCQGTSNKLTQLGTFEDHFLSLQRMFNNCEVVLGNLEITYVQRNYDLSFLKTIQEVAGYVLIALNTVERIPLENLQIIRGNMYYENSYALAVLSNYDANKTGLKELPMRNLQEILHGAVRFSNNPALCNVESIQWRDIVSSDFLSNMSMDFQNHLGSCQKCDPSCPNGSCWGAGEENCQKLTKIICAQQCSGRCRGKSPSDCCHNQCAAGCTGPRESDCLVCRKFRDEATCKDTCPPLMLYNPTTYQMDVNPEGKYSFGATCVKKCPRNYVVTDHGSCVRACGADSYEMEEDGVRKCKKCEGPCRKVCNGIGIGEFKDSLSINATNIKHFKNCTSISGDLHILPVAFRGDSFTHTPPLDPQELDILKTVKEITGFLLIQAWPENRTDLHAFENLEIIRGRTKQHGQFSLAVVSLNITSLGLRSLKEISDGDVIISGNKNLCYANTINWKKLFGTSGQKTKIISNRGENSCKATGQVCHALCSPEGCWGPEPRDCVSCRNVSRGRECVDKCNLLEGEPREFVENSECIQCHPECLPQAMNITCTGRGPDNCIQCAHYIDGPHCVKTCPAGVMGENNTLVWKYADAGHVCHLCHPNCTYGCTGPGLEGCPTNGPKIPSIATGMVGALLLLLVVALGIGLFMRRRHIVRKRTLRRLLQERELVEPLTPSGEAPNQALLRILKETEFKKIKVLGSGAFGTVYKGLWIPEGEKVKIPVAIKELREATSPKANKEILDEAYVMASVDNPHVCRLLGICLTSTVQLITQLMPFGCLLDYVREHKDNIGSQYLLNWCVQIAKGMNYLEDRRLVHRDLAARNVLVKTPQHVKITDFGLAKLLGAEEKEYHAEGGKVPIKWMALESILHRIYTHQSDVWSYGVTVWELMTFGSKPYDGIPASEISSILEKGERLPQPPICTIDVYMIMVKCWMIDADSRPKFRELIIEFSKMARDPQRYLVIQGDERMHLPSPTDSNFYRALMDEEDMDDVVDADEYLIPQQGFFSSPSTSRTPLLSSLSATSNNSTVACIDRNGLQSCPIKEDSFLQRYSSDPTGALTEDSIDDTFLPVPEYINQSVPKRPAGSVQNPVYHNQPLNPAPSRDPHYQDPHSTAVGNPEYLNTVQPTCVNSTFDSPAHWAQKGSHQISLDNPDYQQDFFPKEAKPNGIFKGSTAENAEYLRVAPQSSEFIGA
Chain of Platelet-activating factor receptor (P25105 whole entry): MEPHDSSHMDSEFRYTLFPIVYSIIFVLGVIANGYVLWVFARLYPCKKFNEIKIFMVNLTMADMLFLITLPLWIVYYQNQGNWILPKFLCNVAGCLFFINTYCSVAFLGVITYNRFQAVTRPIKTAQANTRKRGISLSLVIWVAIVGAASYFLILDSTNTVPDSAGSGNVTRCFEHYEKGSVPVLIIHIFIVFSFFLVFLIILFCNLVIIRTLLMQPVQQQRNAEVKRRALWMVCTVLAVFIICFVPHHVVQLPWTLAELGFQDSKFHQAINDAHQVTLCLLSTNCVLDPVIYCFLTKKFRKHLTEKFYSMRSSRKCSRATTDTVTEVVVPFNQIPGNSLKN
Chain of Estrogen receptor beta (Q92731 whole entry): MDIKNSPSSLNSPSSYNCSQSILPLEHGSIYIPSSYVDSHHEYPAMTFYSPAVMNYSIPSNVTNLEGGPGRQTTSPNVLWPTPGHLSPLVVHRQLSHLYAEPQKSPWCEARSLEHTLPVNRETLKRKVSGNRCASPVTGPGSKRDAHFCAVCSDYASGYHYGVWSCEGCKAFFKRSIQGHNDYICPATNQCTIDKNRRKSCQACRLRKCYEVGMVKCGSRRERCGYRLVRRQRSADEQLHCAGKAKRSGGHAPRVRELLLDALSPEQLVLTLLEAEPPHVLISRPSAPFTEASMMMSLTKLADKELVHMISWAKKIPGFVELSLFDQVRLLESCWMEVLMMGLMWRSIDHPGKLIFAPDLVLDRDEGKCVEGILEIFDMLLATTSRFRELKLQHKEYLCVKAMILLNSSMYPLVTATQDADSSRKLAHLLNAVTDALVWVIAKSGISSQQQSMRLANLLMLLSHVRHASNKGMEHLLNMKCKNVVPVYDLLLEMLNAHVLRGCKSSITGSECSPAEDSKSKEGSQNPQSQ
Chain of 5-hydroxytryptamine receptor 4 (O70528 whole entry): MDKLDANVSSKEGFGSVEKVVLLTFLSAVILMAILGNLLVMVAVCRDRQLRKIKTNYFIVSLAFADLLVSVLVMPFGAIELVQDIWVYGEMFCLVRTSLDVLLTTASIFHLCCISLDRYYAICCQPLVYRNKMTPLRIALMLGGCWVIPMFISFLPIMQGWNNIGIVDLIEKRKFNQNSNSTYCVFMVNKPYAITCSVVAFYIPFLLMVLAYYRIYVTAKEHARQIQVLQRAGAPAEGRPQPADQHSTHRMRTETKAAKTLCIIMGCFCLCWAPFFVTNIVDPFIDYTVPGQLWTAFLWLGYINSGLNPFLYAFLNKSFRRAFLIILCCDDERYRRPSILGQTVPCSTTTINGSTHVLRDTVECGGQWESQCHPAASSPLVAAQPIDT
Chain of Cytochrome P450 2C9 (P11712 whole entry): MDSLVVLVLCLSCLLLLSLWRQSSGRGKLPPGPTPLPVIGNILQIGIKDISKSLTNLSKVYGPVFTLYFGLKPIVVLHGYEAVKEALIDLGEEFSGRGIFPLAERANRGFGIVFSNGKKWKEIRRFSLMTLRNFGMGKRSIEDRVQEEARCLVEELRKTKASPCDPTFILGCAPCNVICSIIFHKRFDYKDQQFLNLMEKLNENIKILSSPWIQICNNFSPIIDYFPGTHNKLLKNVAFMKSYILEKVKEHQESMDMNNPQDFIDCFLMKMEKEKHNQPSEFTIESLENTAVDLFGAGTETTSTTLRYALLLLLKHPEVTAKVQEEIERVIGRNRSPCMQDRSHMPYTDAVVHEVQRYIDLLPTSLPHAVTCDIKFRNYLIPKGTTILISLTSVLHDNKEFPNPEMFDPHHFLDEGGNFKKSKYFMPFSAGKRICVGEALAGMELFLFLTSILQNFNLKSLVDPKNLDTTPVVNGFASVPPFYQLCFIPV

CC1(C)[C@@H](O[C@H]2O[C@H](C(=O)O)[C@@H](O)[C@H](O)[C@H]2O[C@@H]2O[C@H](C(=O)O)[C@@H](O)[C@H](O)[C@H]2O)CC[C@]2(C)[C@H]3C(=O)C=C4[C@@H]5C[C@@](C)(C(=O)O)CC[C@]5(C)CC[C@@]4(C)[C@]3(C)CC[C@@H]12 [GLYCYRRHIZIN]
Not Active: IC50 (Leukotriene C4 synthase) | IC50 [1] | Ki [1] | IC50 [2] | Ki [2] | IC50 [3] | IC50 [4] | IC50 (Cytochrome P450 2C9) | Ki (Cytochrome P450 2C9) | IC50 [5] | IC50 [6] | IC50 [7] | Ki [7] | IC50 [8] | IC50 [9] | IC50 (Cytochrome P450 2D6) | Ki (Cytochrome P450 2D6) | IC50 (Nitric oxide synthase 1) | IC50 (Estrogen receptor beta) | IC50 [10]

COC1=CC(=O)C[C@@H](C)[C@]12Oc1c(Cl)c(OC)cc(OC)c1C2=O [GRISEOFULVIN]
Not Active: IC50 (Leukotriene C4 synthase) | IC50 [1] | Ki [1] | IC50 [2] | Ki [2] | IC50 [3] | IC50 [4] | IC50 (Cytochrome P450 2C9) | Ki (Cytochrome P450 2C9) | IC50 [5] | IC50 [6] | IC50 [7] | Ki [7] | IC50 [8] | IC50 [9] | IC50 (Cytochrome P450 2D6) | Ki (Cytochrome P450 2D6) | IC50 (Nitric oxide synthase 1) | IC50 (Estrogen receptor beta) | IC50 [10]

C/C=C1\[C@H]2C=C(C)C[C@]1(N)c1ccc(=O)[nH]c1C2 [HUPERZINE A]
Not Active: IC50 (Leukotriene C4 synthase) | IC50 [1] | Ki [1] | IC50 [2] | Ki [2] | IC50 [3] | IC50 [4] | IC50 (Cytochrome P450 2C9) | Ki (Cytochrome P450 2C9) | IC50 [5] | IC50 [6] | IC50 [7] | Ki [7] | IC50 [8] | IC50 [9] | IC50 (Cytochrome P450 2D6) | Ki (Cytochrome P450 2D6) | IC50 (Nitric oxide synthase 1) | IC50 (Estrogen receptor beta) | IC50 [10]

NS(=O)(=O)c1cc2c(cc1Cl)NCNS2(=O)=O [HYDROCHLOROTHIAZIDE]
Not Active: IC50 (Leukotriene C4 synthase) | IC50 [1] | Ki [1] | IC50 [2] | Ki [2] | IC50 [3] | IC50 [4] | IC50 (Cytochrome P450 2C9) | Ki (Cytochrome P450 2C9) | IC50 [5] | IC50 [6] | IC50 [7] | Ki [7] | IC50 [8] | IC50 [9] | IC50 (Cytochrome P450 2D6) | Ki (Cytochrome P450 2D6) | IC50 (Nitric oxide synthase 1) | IC50 (Estrogen receptor beta) | IC50 [10]

O=C1CN=C(c2ccccc2)c2cc([N+](=O)[O-])ccc2N1 [NITRAZEPAM]
Not Active: IC50 (Leukotriene C4 synthase) | IC50 [1] | Ki [1] | IC50 [2] | Ki [2] | IC50 [3] | IC50 [4] | IC50 (Cytochrome P450 2C9) | Ki (Cytochrome P450 2C9) | IC50 [5] | IC50 [6] | IC50 [7] | Ki [7] | IC50 [8] | IC50 [9] | IC50 (Cytochrome P450 2D6) | Ki (Cytochrome P450 2D6) | IC50 (Nitric oxide synthase 1) | IC50 (Estrogen receptor beta) | IC50 [10]

CN(C)[C@@H]1C(O)=C(C(N)=O)C(=O)[C@@]2(O)C(O)=C3C(=O)c4c(O)cccc4[C@@](C)(O)[C@H]3[C@H](O)[C@@H]12 [OXYTETRACYCLINE]
Not Active: IC50 (Leukotriene C4 synthase) | IC50 [1] | Ki [1] | IC50 [2] | Ki [2] | IC50 [3] | IC50 [4] | IC50 (Cytochrome P450 2C9) | Ki (Cytochrome P450 2C9) | IC50 [5] | IC50 [6] | IC50 [7] | Ki [7] | IC50 [8] | IC50 [9] | IC50 (Cytochrome P450 2D6) | Ki (Cytochrome P450 2D6) | IC50 (Nitric oxide synthase 1) | IC50 (Estrogen receptor beta) | IC50 [10]

CC(C)(S)[C@@H](N)C(=O)O [PENICILLAMINE]
Not Active: IC50 (Leukotriene C4 synthase) | IC50 [1] | Ki [1] | IC50 [2] | Ki [2] | IC50 [3] | IC50 [4] | IC50 (Cytochrome P450 2C9) | Ki (Cytochrome P450 2C9) | IC50 [5] | IC50 [6] | IC50 [7] | Ki [7] | IC50 [8] | IC50 [9] | IC50 (Cytochrome P450 2D6) | Ki (Cytochrome P450 2D6) | IC50 (Nitric oxide synthase 1) | IC50 (Estrogen receptor beta) | IC50 [10]

CC(=O)CCCCn1c(=O)c2c(ncn2C)n(C)c1=O [PENTOXIFYLLINE]
Not Active: IC50 (Leukotriene C4 synthase) | IC50 [1] | Ki [1] | IC50 [2] | Ki [2] | IC50 [3] | IC50 [4] | IC50 (Cytochrome P450 2C9) | Ki (Cytochrome P450 2C9) | IC50 [5] | IC50 [6] | IC50 [7] | Ki [7] | IC50 [8] | IC50 [9] | IC50 (Cytochrome P450 2D6) | Ki (Cytochrome P450 2D6) | IC50 (Nitric oxide synthase 1) | IC50 (Estrogen receptor beta) | IC50 [10]

C=C(C)[C@@H]1[C@H]2OC(=O)[C@@H]1[C@]1(O)C[C@H]3O[C@]34C(=O)O[C@H]2[C@]14C [PICROTOXININ]
Not Active: IC50 (Leukotriene C4 synthase) | IC50 [1] | Ki [1] | IC50 [2] | Ki [2] | IC50 [3] | IC50 [4] | IC50 (Cytochrome P450 2C9) | Ki (Cytochrome P450 2C9) | IC50 [5] | IC50 [6] | IC50 [7] | Ki [7] | IC50 [8] | IC50 [9] | IC50 (Cytochrome P450 2D6) | Ki (Cytochrome P450 2D6) | IC50 (Nitric oxide synthase 1) | IC50 (Estrogen receptor beta) | IC50 [10]
